Laboratory results published in PMC12024234, “Antioxidant, Anti-Inflammatory, and Oral Bioavailability of Novel Sulfonamide Derivatives of Gallic Acid” (Antioxidants, 2025).

Columns and labels:
CYP2D6 = target: T1, CYP2D6 (Homo sapiens, UniProt P10635); assay: Metabolism by cytochrome P450 2D6 (CypExpress), HPLC; assay type: in vitro ADME; settings: 4 h
T1 construct: purchased Sigma Aldrich C4982
Procedure: The enzymatic activity of cytochrome P450 2D6 (CYP2D6) was evaluated following the CypExpress protocol (C4982, Sigma Aldrich, Darmstadt, Germany). The reaction buffer consisted of 5 mM glucose-6-phosphate (G6P), 2 mM nicotinamide adenine dinucleotide phosphate (NADP+), and 3,4,5-TMBS prepared in PBS at concentrations of 1000 and 1500 µM. Diltiazem was used as a positive control. The reaction was initiated by adding CYP2D6, and the mixture was vortexed for 5 min. The samples were then incubated at 37 °C with gentle shaking at 100 rpm for 4 h. The reaction was terminated by adding acetonitrile, followed by centrifugation at 800 rpm for 10 min. The supernatant was collected and analyzed using HPLC.

[1] = target: Bovine Serum Albumin (BSA) (Bos taurus, UniProt P02769); assay: Protein denaturation assay; assay type: biochemical; settings: at 100 nM and higher concentrations (range 1–1000 nM)
Procedure: The anti-inflammatory potential of the compounds was evaluated using a protein denaturation assay, a well-established method to assess the capacity of test substances to inhibit protein denaturation, a key marker of inflammation. […] After heating, the samples were allowed to cool to room temperature, and the turbidity of the solutions, indicative of protein precipitation, was measured spectrophotometrically at 660 nm. A reduction in turbidity corresponds to the inhibition of protein denaturation, reflecting the anti-inflammatory activity of the tested compounds.

T1 sequence (P10635 whole entry): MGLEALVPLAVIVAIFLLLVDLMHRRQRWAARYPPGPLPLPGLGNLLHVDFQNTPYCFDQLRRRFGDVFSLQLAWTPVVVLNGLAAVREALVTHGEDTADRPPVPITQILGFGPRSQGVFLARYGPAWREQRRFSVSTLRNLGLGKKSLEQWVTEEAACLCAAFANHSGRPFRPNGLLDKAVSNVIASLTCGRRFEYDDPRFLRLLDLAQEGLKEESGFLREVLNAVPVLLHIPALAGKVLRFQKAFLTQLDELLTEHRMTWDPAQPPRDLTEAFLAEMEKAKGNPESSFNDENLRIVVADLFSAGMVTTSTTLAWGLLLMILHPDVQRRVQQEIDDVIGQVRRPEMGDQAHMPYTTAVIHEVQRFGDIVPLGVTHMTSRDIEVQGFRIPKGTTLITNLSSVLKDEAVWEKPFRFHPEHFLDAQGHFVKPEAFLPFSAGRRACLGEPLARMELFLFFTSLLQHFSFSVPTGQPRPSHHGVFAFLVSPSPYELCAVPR
Sequence of Bovine Serum Albumin (BSA) (P02769 25-607): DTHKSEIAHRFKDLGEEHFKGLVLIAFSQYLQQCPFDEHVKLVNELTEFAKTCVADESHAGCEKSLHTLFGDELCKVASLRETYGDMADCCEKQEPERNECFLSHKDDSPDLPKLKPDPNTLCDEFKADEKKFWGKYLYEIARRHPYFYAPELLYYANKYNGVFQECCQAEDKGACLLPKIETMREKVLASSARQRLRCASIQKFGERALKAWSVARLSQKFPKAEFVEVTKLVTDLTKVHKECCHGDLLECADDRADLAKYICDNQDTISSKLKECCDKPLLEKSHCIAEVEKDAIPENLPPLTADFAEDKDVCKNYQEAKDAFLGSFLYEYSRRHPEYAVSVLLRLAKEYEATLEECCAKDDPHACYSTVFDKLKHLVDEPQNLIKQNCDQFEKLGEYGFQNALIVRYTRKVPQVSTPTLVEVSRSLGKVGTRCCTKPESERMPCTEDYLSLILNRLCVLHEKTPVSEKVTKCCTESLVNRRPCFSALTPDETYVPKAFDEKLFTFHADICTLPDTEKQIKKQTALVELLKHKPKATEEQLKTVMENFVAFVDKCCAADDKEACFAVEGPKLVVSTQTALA

SMILES: COc1cc(S(N)(=O)=O)cc(OC)c1OC [3,4,5-TMBS, 3,4,5-trimethoxybenzenesulfonamide]
- Metabolism by CYP2D6 (concentration) (CYP2D6; 1000 µM): 833 ± 54.9 µM
- Metabolism by CYP2D6 (concentration) (CYP2D6; 1500 µM): 1248 ± 5.02 µM
- Anti-inflammatory activity (inhibition of protein denaturation) compared to ibuprofen [1]: significant increase in anti-inflammatory activity
